Structures can show the parent of a compound that is named as a salt.
molecular target: T1, GST fusion protein containing the Met kinase domain (Homo sapiens, UniProt P08581); assay: MET Transphosphorylation Assay (ELISA, poly(Glu,Tyr) 4:1 substrate); assay type: biochemical; settings: met transphosphorylation of poly(glutamic acid:tyrosine 4:1) substrate; two values in a cell separated by '/'
T1 construct: Purified GST fusion protein containing the Met kinase domain, Sugen, Inc
Description: MET Transphosphorylation Assay
This assay is used to measure phosphotyrosine levels on a poly(glutamic acid:tyrosine (4:1)) substrate as a means for identifying agonists/antagonists of met transphosphorylation of the substrate.
• 1. […] PBS, Gibco Catalog # 450-1300EB • 4. 50 mM HEPES • 5. […] Purified GST fusion protein containing the Met kinase domain, Sugen, Inc. • 7. TBST Buffer. • 8. 10% aqueous (MilliQue H2O) DMSO. • 9. […] 2× Kinase Dilution Buffer: for 100 ml, mix 10 mL 1M HEPES at pH 7.5 with 0.4 mL 5% BSA/PBS, 0.2 mL 0.1 M sodium orthovanadate and 1 mL 5M sodium chloride in 88.4 mL dH2O. • 11. 4×ATP Reaction Mixture: for 10 mL, mix 0.4 mL 1 M manganese chloride and 0.02 mL 0.1 M ATP in […] dH2O. • 12. 4× Negative Controls Mixture: for 10 mL, mix 0.4 mL 1 M manganese chloride in 9.6 mL dH2O.
13. […] 500 mM EDTA. • 15. Antibody Dilution Buffer: for 100 mL, mix 10 mL 5% BSA/PBS, 0.5 mL 5% Carnation Instant Milk® in PBS and 0.1 mL 0.1 M sodium orthovanadate in 88.4 mL TBST. • 16. Rabbit polyclonal antophosphotyrosine antibody, Sugen, Inc. • 17. Goat anti-rabbit horseradish peroxidase conjugated antibody, Biosource, Inc. • 18. ABTS Solution: for 1 L, mix 19.21 g citric acid, 35.49 g Na2HPO4 and 500 mg ABTS with sufficient dH2O to make 1 L. • 19. ABTS/H2O2: mix 15 mL ABST solution with 2 μL H2O2 five minutes before use. • 20. 0.2 M HCl Procedure: • 1. Coat ELISA plates with 2 μg Poly(Glu-Tyr) in 100 μL PBS, store overnight at 4° C. • 2. Block plate with 150 μL of 5% BSA/PBS for 60 min. • 3. Wash plate twice with PBS, once with 50 mM Hepes buffer pH 7.4. • 4. Add 50 μl of the diluted kinase to all wells. (Purified kinase is diluted with Kinase Dilution Buffer. Final concentration should be 10 ng/well.) • 5. Add 25 μL of the test compound (in 4% DMSO) or DMSO alone (4% in dH2O) for controls to plate. • 6. Incubate the kinase/compound mixture for 15 minutes. • 7. Add 25 μL of 40 mM MnCl2 to the negative control wells. • 8. Add 25 μL ATP/MnCl2 mixture to the all other wells (except the negative controls). Incubate for 5 min. • 9. Add 25 μL 500 mM EDTA to stop reaction. • 10. Wash plate 3× with TBST. • 11. Add 100 μL rabbit polyclonal anti-Ptyr diluted 1:10,000 in Antibody Dilution Buffer to each well. Incubate, with shaking, at room temperature for one hour. • 12. Wash plate 3× with TBST. • 13. […] Add 100 μL per well and incubate at room temperature, with shaking, for one hour. • 14. Wash plate 1× with PBS. • 15. Add 100 μl of ABTS/H2O2 solution to each well. • 16. If necessary, stop the development reaction with the addition of […] of 0.2M HCl per well. • 17.

T1 sequence (P08581 1078-1345 limits assumed): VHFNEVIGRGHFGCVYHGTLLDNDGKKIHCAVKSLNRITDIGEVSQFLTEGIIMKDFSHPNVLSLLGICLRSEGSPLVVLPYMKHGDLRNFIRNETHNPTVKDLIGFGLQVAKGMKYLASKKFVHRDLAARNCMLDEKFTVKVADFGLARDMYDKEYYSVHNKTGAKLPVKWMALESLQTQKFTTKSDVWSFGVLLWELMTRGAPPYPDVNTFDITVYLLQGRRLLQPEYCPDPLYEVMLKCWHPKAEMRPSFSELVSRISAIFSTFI

Compound	IC50
Cc1ccc(C)c2c1NC(=O)/C2=N\NC(=O)CCc1ccc(O)cc1 [II-81, 3-(4-Hydroxy-phenyl)-propionic acid [(3Z)-4,7-dimethyl-2-oxo-1,2-dihydro-indol-3-ylidene]-hydrazide]	59 nM
CC(C(=O)N/N=C1\C(=O)Nc2ccc(C(=O)N3CCC[C@@H]3CN3CCCC3)c(Cl)c21)c1ccc(F)cc1 (stereo partly drawn) [Example I-40, 2-(4-Fluoro-phenyl)-propionic acid [(3Z)-4-chloro-2-oxo-5-[(2R)-(2-pyrrolidin-1-ylmethyl-pyrrolidine-1-carbonyl)]-1,2-dihydro-indol-3-ylidene]-hydrazide]	430 nM
O=C(Cc1ccc(O)c(Cl)c1)N/N=C1\C(=O)Nc2ccccc21 [II-42]	36 nM
O=C(Cc1ccc(O)c(Br)c1)N/N=C1\C(=O)Nc2ccccc21 [II-101, (3-Bromo-4-hydroxy-phenyl)-acetic acid [(3Z)-2-oxo-1,2-dihydro-indol-3-ylidene]-hydrazide]	54 nM
O=C(Cc1ccc(O)cc1)N/N=C1\C(=O)Nc2c(Br)cc(Cl)cc21 [II-32, (4-Hydroxy-phenyl)-acetic acid [(3Z)-7-bromo-5-chloro-2-oxo-1,2-dihydro-indol-3-ylidene]-hydrazide]	54 nM
COc1cc(CC(=O)N/N=C2\C(=O)Nc3c(Cl)ccc(Cl)c32)cc(OC)c1O [II-100, (4-Hydroxy-3,5-dimethoxy-phenyl)-acetic acid [(3Z)-4,7-dichloro-2-oxo-1,2-dihydro-indol-3-ylidene)-hydrazide]	> 20000 nM
O=C(Cc1ccncc1)N/N=C1\C(=O)Nc2c(Cl)ccc(Cl)c21 [II-66, Pyridin-4-yl-acetic acid [(3Z)-4,7-dichloro-2-oxo-1,2-dihydro-indol-3-ylidene]-hydrazide]	13 nM
CS(=O)(=O)c1ccc(CC(=O)N/N=C2\C(=O)Nc3ccccc32)cc1 [Example I-21, (4-Methanesulfonyl-phenyl)-acetic acid [(3Z)-2-oxo-1,2-dihydro-indol-3-ylidene]-hydrazide]	> 20000 nM
O=C(Cc1ccc(O)c(O)c1)N/N=C1\C(=O)Nc2ccccc21 [II-41, (3,4-Dihydroxy-phenyl)-acetic acid [(3Z)-2-oxo-1,2-dihydro-indol-3-ylidene]-hydrazide]	1770 nM
Cc1ccc2c(c1)/C(=N/NC(=O)Cc1ccc(O)cc1)C(=O)N2 [II-58, (4-Hydroxy-phenyl)-acetic acid [(3Z)-5-methyl-2-oxo-1,2-dihydro-indol-3-ylidene]-hydrazide]	67 nM
O=C(Cc1ccc(O)cc1)N/N=C1\C(=O)Nc2ccc(C(=O)O)cc21 [Example I-10, (3Z)-3-{[2-(4-Hydroxy-phenyl)-acetyl]-hydrazono}-(3Z)-2-oxo-2,3-dihydro-1H-indole-5-carboxylic acid]	900 nM
CC(C(=O)N/N=C1\C(=O)Nc2c(Cl)ccc(Cl)c21)c1ccc2c(c1)OCO2 (centres unmarked) [Example I-52, 2-Benzo[1,3]dioxol-5-yl-propionic acid [(3Z)-4,7-dichloro-2-oxo-1,2-dihydro-indol-3-ylidene]-hydrazide]	260 nM
O=C(Cc1cc(=O)[nH]c(=O)[nH]1)N/N=C1\C(=O)Nc2c(Cl)ccc(Cl)c21 [II-82, (2,6-Dioxo-1,2,3,6-tetrahydro-pyrimidin-4-yl)-acetic acid [(3Z)-4,7-dichloro-2-oxo-1,2-dihydro-indol-3-ylidene]-hydrazide]	> 20000 nM
O=C(Cc1cc(=O)[nH]c(=O)[nH]1)N/N=C1\C(=O)Nc2ccccc21 [II-80, (2,6-Dioxo-1,2,3,6-tetrahydro-pyrimidin-4-yl)-acetic acid [(3Z)-2-oxo-1,2-dihydro-indol-3-ylidene)-hydrazide]	> 20000 nM
COc1ccc(CCC(=O)N/N=C2\C(=O)Nc3c(Cl)ccc(Cl)c32)cc1 [II-86, 3-(4-Methoxy-phenyl)-propionic acid [(3Z)-4,7-dichloro-2-oxo-1,2-dihydro-indol-3-ylidene]-hydrazide]	2000 nM
Cc1cn(CC(=O)N/N=C2\C(=O)Nc3c(Cl)ccc(Cl)c32)c(=O)[nH]c1=O [II-74, (5-Methyl-2,4-dioxo-3,4-dihydro-2H-pyrimidin-1-yl)-acetic acid [(3Z)-4,7-dichloro-2-oxo-1,2-dihydro-indol-3-ylidene]-hydrazide]	> 20000 nM
O=C(CCc1ccc(O)cc1)N/N=C1\C(=O)Nc2cccc(Cl)c21 [II-83, 3-(4-Hydroxy-phenyl)-propionic acid [(3Z)-4-chloro-2-oxo-1,2-dihydro-indol-3-ylidene]-hydrazide]	81 nM
O=C(Cc1ccc(O)cc1)N/N=C1\C(=O)Nc2ccc(C(=O)N3CCC(NC4CC4)CC3)c(Cl)c21 [Example I-28, (4-Hydroxy-phenyl)-acetic acid [(3Z)-4-chloro-5-(4-cyclopropylamino-piperidine-1-carbonyl)-2-oxo-1,2-dihydro-indol-3-ylidene]-hydrazide]	24 nM
CC(C(=O)N/N=C1\C(=O)Nc2ccc(S(=O)(=O)NCCN3CCOCC3)cc21)c1ccc(O)cc1 (centres unmarked) [Example I-27, (3Z)-3-{[2-(4-Hydroxy-phenyl)-propionyl]-hydrazono}-2-oxo-2,3-dihydro-1H-indole-5-sulfonic acid (2-morpholin-4-yl-ethyl)-amide]	390 nM
O=C1Nc2ccccc2/C1=N/NC(=O)C(O)c1ccc(O)cc1 (centres unmarked) [Example I-3, Hydroxy-(4-hydroxy-phenyl)-acetic acid [(3Z)-2-oxo-1,2-dihydro-indol-3-ylidene]-hydrazide]	10700 nM
CC(C(=O)N/N=C1\C(=O)Nc2ccc(C(=O)N3CC[C@H](N)C3)c(Cl)c21)c1ccc(F)cc1 (stereo partly drawn) [Example I-48, 2-(4-Fluoro-phenyl)-propionic acid [(3Z)-5-[(3S)-3-amino-pyrrolidine-1-carbonyl]-4-chloro-2-oxo-1,2-dihydro-indol-3-ylidene]-hydrazide trifluoroacetate]	460 nM
Cn1cc(CC(=O)N/N=C2\C(=O)Nc3ccc(C(=O)O)c(Cl)c32)ccc1=O [Example I-34, (3Z)-4-Chloro-3-{[2-(1-methyl-6-oxo-1,6-dihydro-pyridin-3-yl)-acetyl]-hydrazono}-2-oxo-2,3-dihydro-1H-indole-5-carboxylic acid]	2080 nM
Cc1ccc(Cl)c2c1NC(=O)/C2=N\NC(=O)C(C)c1ccc(F)cc1 (centres unmarked) [II-114, 2-(4-Fluoro-phenyl)-propionic acid [(3Z)4-chloro-7-methyl-2-oxo-1,2-dihydro-indol-3-ylidene]-hydrazide]	200 nM
O=C(Cc1ccc(O)cc1)N/N=C1\C(=O)Nc2ccc([N+](=O)[O-])cc21 [II-62, (4-Hydroxy-phenyl)-acetic acid [(3Z)-5-nitro-2-oxo-1,2-dihydro-indol-3-ylidene]-hydrazide]	96 nM
CC(C(=O)N/N=C1\C(=O)Nc2cccc(-c3cccc(F)c3)c21)c1ccc(O)cc1 (centres unmarked) [Example I-16, 2-(4-Hydroxy-phenyl)-propionic acid [(3Z)-4-(3-fluoro-phenyl)-2-oxo-1,2-dihydro-indol-3-ylidene]-hydrazide]	140 nM
O=C(Cc1ccc(O)c(Cl)c1)N/N=C1\C(=O)Nc2ccc(C(=O)O)c(Cl)c21 [Example I-37, (3Z)-4-Chloro-3-{[2-(3-chloro-4-hydroxy-phenyl)-acetyl]-hydrazono}-2-oxo-2,3-dihydro-1H-indole-5-carboxylic acid]	29 nM
O=C(Cc1cccc(Cl)c1)N/N=C1\C(=O)Nc2ccccc21 [II-14, (3-Chloro-phenyl)-acetic acid [(3Z)-2-oxo-1,2-dihydro-indol-3-ylidene]-hydrazide]	5680 nM
COc1cccc(CC(=O)N/N=C2\C(=O)Nc3ccccc32)c1 [II-12, (3-Methoxy-phenyl)-acetic acid [(3Z)-2-oxo-1,2-dihydro-indol-3-ylidene]-hydrazide]	7200 nM
CC(=O)Nc1ccc(CC(=O)N/N=C2\C(=O)Nc3ccccc32)cc1 [Example I-4, N-[4-[(3Z)-2-Oxo-1,2-dihydro-indol-3-ylidene-hydrazinocarbonylmethyl]-phenyl]-acetamide]	> 20000 nM

— patent publication US20060009493A1, “Indolinone hydrazides as c-Met inhibitors” (Sugen, Inc., priority 2003, published 2006)
